The record followed here is patent US20100098670A1, “Autologous dental pulp stem cell-based bone graft substitute” (Cerapedics Inc., priority 2007, published 2010).

“Also recorded” adds a separate entry of the source. Ends that are not written are not given here.

One experiment relates to HDPSCs. The experiment in a line: ALP and toluidine blue staining of HDPSCs cultured on scaffolds. Format: cell-based, human. To be noted: isolated HDPSCs on scaffolds. The procedure:
(§1) The HDPSCs were isolated from human dental pulp tissues and cultured on ABM and ABM-P-15 scaffolds in media. The cultured cells on the scaffolds were analysed by live/dead fluorescent markers, histological staining (ALP, Alizalin Red, Toluidine blue), confocal microscopy and scanning electron microscopy. The effect of P-15 on HDPSCs BMP-2 production was confirmed by a well developed promyoblast induction assay via co-culturing of C2C12 promyoblasts and HDPSCs on ABM or ABM-P-15. […] Cell outgrowth from the explants was assessed by live/dead fluorescent markers, histological staining (ALP), confocal microscope and scanning electron microscopy.

Experiment [1] deals with human dental pulp explants. As to the kind of experiment: Cell outgrowth from human dental pulp explants cultured with scaffolds (live/dead markers, confocal microscopy, SEM). Format: cell-based. To be noted: fluorescence, confocal or SEM images. How it is done:
as §1
Teeth were obtained with patients' informed consent following project approval by the NHS local ethical committee (COREC: 06/Q1206/165). Human dental pulp was extracted from sound intact teeth, which had been surgically removed at the Leeds Dental Institute for clinical reasons. Each tooth was washed within a Class II hood and cracked in a bench vice. The dental pulp tissues were harvested and washed with 1×PBS and minced into small pieces (1×2×2 mm^3) which were kept in the PBS and ready for use.
PepGen P-15 (ABM-P15) and/or Osteo-Graf/N-300 (ABM alone) were provided by Cerapedics Inc. (Lakewood, Colo.) in a particulate form. 50 mg of ABM-P-15 and ABM alone were transferred into the 48 well plates and sterilized under UV radiation for 30 minutes. […]

Take “GTPGPQGIAGQRGVV [P-15, collagen mimetic, 15 amino acid residues of the α1(I) chain of collagen]”: in the experiment with HDPSCs, the “HDPSCs differentiation along the osteogenic lineage (ALP expression)” value is recorded as “promoted the HDPSCs differentiation along the osteogenic lineage; also recorded: promoted HDPSCs differentiation along the osteogenic lineage”. Further, in experiment [1] (50 mg scaffold, basal media), the “outgrowth of HDPSCs from dental pulp explants” value is listed as “enhanced the outgrowth”. In addition, the “cell bridge formation between adjacent scaffold particles” value in experiment [1] (explant culture) is reported as “promoted cell bridge formation”.
